Test results reported in PubChem BioAssay AID330 (DTP/NCI, 2004).
Several values for one entry are separate records, joined by “and”; a condition that tells them apart may be missing. Equal values may be shown once. Toxic doses and inconclusive results are not listed. Square brackets hold non-standard residues; d marks the D form. Peptide text beside a SMILES is read from it. * marks the point of attachment. Ac5c = NC1(C(=O)O)CCCC1; Cbz = O=C(OCc1ccccc1)*; Nva = CCC[CH](N)C(=O)O

Tested on: P388 leukemia ip, CD2F1 mice, survival T/C
Experiment: NCI In Vivo Anticancer Drug Screen. Data for tumor model P388 Leukemia (intraperitoneal) in CD2F1 (CDF1) mice
Conditions: endpoint: median survival time, higher = longer survival
Method in brief: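 Mice carrying the transplanted tumor received test compound or vehicle. Survival was recorded in each group, and the value is the treated-group measurement divided by that of the vehicle-treated control group.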

[1] = dose: 50.0 mg/kg/injection, schedule: Q01DX009 (ip), vehicle: saline with Tween-80
[2] = dose: 100.0 mg/kg/injection, schedule: Q01DX009 (ip), vehicle: saline with Tween-80
[3] = dose: 200.0 mg/kg/injection, schedule: Q01DX009 (ip), vehicle: saline with Tween-80
[4] = dose: 25.0 mg/kg/injection, schedule: Q01DX009 (ip), vehicle: saline sonified
[5] = dose: 50.0 mg/kg/injection, schedule: Q01DX009 (ip), vehicle: saline sonified
[6] = dose: 60.0 mg/kg/injection, schedule: Q01DX005 (ip), vehicle: saline with Tween-80
[7] = dose: 120.0 mg/kg/injection, schedule: Q01DX005 (ip), vehicle: saline with Tween-80
[8] = dose: 50.0 mg/kg/injection, schedule: Q01DX005 (ip), vehicle: saline with Tween-80
[9] = dose: 100.0 mg/kg/injection, schedule: Q01DX005 (ip), vehicle: saline with Tween-80
[10] = dose: 200.0 mg/kg/injection, schedule: Q01DX005 (ip), vehicle: saline with Tween-80
[11] = dose: 50.0 mg/kg/injection, schedule: Q01DX005 (ip), vehicle: Klucel (hydroxypropylcellulose) (HPC)
[12] = dose: 100.0 mg/kg/injection, schedule: Q01DX005 (ip), vehicle: Klucel (hydroxypropylcellulose) (HPC)
[13] = dose: 200.0 mg/kg/injection, schedule: Q01DX005 (ip), vehicle: Klucel (hydroxypropylcellulose) (HPC)
[14] = dose: 240.0 mg/kg/injection, schedule: Q01DX005 (ip), vehicle: saline with Tween-80
[15] = dose: 1.56 mg/kg/injection, schedule: Q01DX009 (ip), vehicle: saline with Tween-80
[16] = dose: 3.13 mg/kg/injection, schedule: Q01DX009 (ip), vehicle: saline with Tween-80
[17] = dose: 50.0 mg/kg/injection, schedule: Q01DX009 (ip), vehicle: saline
[18] = dose: 100.0 mg/kg/injection, schedule: Q01DX009 (ip), vehicle: saline
[19] = dose: 200.0 mg/kg/injection, schedule: Q01DX009 (ip), vehicle: saline

CCC1=C[C@H]2CN(CCc3c([nH]c4ccccc34)[C@@](OC(C)=O)(c3cc4c(cc3OC)N(C)[C@H]3[C@@](O)(C(=O)NCCSc5ccccc5)[C@H](O)[C@]5(CC)C=CCN6CC[C@]43[C@@H]65)C2)C1
T/C (dose: 0.5 mg/kg/injection, schedule: Q01DX001 (ip), vehicle: water): 107 % of control
T/C (dose: 8.0 mg/kg/injection, schedule: Q01DX001 (ip), vehicle: water): 174 % of control
T/C (dose: 16.0 mg/kg/injection, schedule: Q01DX001 (ip), vehicle: water): 163 % of control and 184 % of control

N=C(Oc1ccccc1[N+](=O)[O-])c1ccccc1
T/C [1]: 90 % of control and 94 % of control
T/C [2]: 100 % of control and 95 % of control
T/C [3]: 102 % of control and 93 % of control
T/C (dose: 400.0 mg/kg/injection, schedule: Q01DX009 (ip), vehicle: saline with Tween-80): 88 % of control

C[C@@H]1C[C@H]2[C@@H]3CCC4=CC(=O)C=C[C@]4(C)[C@@]3(F)[C@@H](O)C[C@]2(C)[C@@]1(O)C(=O)CO
T/C [4]: 100 % of control
T/C [5]: 90 % of control

CCOC(=O)C(=O)Cc1nc2ccccc2nc1C
T/C [6]: 93 % of control
T/C [7]: 97 % of control

CCCCCCCCCCN(CCCCCCCCCC)C(C)C(=O)c1ccc2cc(Br)c3ccccc3c2c1 (centres undefined)
T/C [8]: 99 % of control
T/C [9]: 89 % of control
T/C [10]: 104 % of control

CCOC(=O)/C(N=Nc1ccccc1Cl)=C(\C)O
T/C [11]: 101 % of control
T/C [12]: 101 % of control
T/C [13]: 101 % of control

COc1cc(C2c3cc4c(cc3CCN2C(=O)c2ccccc2)OCO4)cc(OC)c1OC (centres undefined)
T/C [11]: 93 % of control
T/C [12]: 91 % of control
T/C [13]: 93 % of control

CC(C)N1C(=O)C2C3C=CC(C3)C2C1=O (centres undefined)
T/C (dose: 25.0 mg/kg/injection, schedule: Q04DX002 (ip), vehicle: saline with Tween-80): 94 % of control
T/C (dose: 50.0 mg/kg/injection, schedule: Q04DX002 (ip), vehicle: saline with Tween-80): 108 % of control

N#Cc1c(Cl)c(Cc2ccccc2)c(Cl)n2c1nc1ccccc12
T/C [6]: 100 % of control
T/C [7]: 108 % of control
T/C [14]: 99 % of control

C/C=C/C(=O)Sc1ccccc1
T/C (dose: 12.5 mg/kg/injection, schedule: Q01DX009 (ip), vehicle: Klucel (hydroxypropylcellulose) (HPC)): 108 % of control
T/C (dose: 25.0 mg/kg/injection, schedule: Q01DX009 (ip), vehicle: Klucel (hydroxypropylcellulose) (HPC)): 105 % of control
T/C (dose: 50.0 mg/kg/injection, schedule: Q01DX009 (ip), vehicle: Klucel (hydroxypropylcellulose) (HPC)): 101 % of control and 105 % of control

O=C1c2ccccc2C(=O)C(Cl)C1Cl (centres undefined)
T/C [15]: 100 % of control
T/C [16]: 101 % of control

CC1(C)CCc2c(cc3c(c2O)CCC(C)(C)O3)O1
T/C [6]: 109 % of control
T/C [7]: 117 % of control
T/C [14]: 100 % of control

Fc1cccc(NC(=S)SCc2ccc(Cl)c(Cl)c2)c1
T/C (dose: 50.0 mg/kg/injection, schedule: Q01DX009 (ip), vehicle: suspension in saline): 99 % of control
T/C (dose: 100.0 mg/kg/injection, schedule: Q01DX009 (ip), vehicle: suspension in saline): 93 % of control
T/C (dose: 200.0 mg/kg/injection, schedule: Q01DX009 (ip), vehicle: suspension in saline): 109 % of control

CC(C)N(c1ccc(O)c2ccccc12)C(C)C
T/C (dose: 100.0 mg/kg/injection, schedule: Q01DX001 (ip), vehicle: saline with Tween-80): 96 % of control
T/C (dose: 200.0 mg/kg/injection, schedule: Q01DX001 (ip), vehicle: saline with Tween-80): 100 % of control
T/C (dose: 400.0 mg/kg/injection, schedule: Q01DX001 (ip), vehicle: saline with Tween-80): 95 % of control

NC1(C(=O)NCC(=O)O)CCCC1 (H-[Ac5c]-Gly-OH)
T/C (dose: 50.0 mg/kg/injection, schedule: Q04DX003 (ip), vehicle: Klucel (hydroxypropylcellulose) (HPC)): 99 % of control
T/C (dose: 100.0 mg/kg/injection, schedule: Q04DX003 (ip), vehicle: Klucel (hydroxypropylcellulose) (HPC)): 99 % of control
T/C (dose: 200.0 mg/kg/injection, schedule: Q04DX003 (ip), vehicle: Klucel (hydroxypropylcellulose) (HPC)): 97 % of control
T/C (dose: 400.0 mg/kg/injection, schedule: Q04DX003 (ip), vehicle: Klucel (hydroxypropylcellulose) (HPC)): 112 % of control

COc1cc(C2c3cc4c(cc3OC(=O)C2C(C)=O)OCO4)cc(OC)c1OC (centres undefined)
T/C (dose: 30.0 mg/kg/injection, schedule: Q01DX005 (ip), vehicle: saline with Tween-80): 89 % of control and 90 % of control
T/C [6]: 89 % of control (2×) and 93 % of control
T/C [7]: 107 % of control and 110 % of control

Oc1ccc2ccccc2c1/C=N\Sc1ccc(Cl)cc1
T/C [1]: 90 % of control
T/C [2]: 91 % of control
T/C [3]: 96 % of control

CN(c1ccccc1)P(C)(Cl)(c1ccccc1)c1ccccc1
T/C [15]: 101 % of control
T/C [16]: 109 % of control
T/C (dose: 6.25 mg/kg/injection, schedule: Q01DX009 (ip), vehicle: saline with Tween-80): 118 % of control

O=S1(=O)CCC2C1C1(Cl)C(Cl)=C(Cl)C2(Cl)C1(Cl)Cl (centres undefined)
T/C (dose: 6.25 mg/kg/injection, schedule: Q01DX009 (ip), vehicle: saline): 100 % of control
T/C (dose: 12.5 mg/kg/injection, schedule: Q01DX009 (ip), vehicle: saline): 100 % of control
T/C (dose: 25.0 mg/kg/injection, schedule: Q01DX009 (ip), vehicle: saline): 100 % of control

NC1CCNC(O)[N-]1.NC1CCNC(O)[N-]1.[Cl][Pd][Cl] (centres undefined)
T/C (dose: 60.0 mg/kg/injection, schedule: Q01DX005 (ip), vehicle: Klucel (hydroxypropylcellulose) (HPC)): 97 % of control
T/C (dose: 120.0 mg/kg/injection, schedule: Q01DX005 (ip), vehicle: Klucel (hydroxypropylcellulose) (HPC)): 103 % of control
T/C (dose: 240.0 mg/kg/injection, schedule: Q01DX005 (ip), vehicle: Klucel (hydroxypropylcellulose) (HPC)): 112 % of control

O=Cc1nnc(-c2ccccc2)o1
T/C (dose: 12.5 mg/kg/injection, schedule: Q01DX009 (ip), vehicle: DMSO): 90 % of control
T/C (dose: 25.0 mg/kg/injection, schedule: Q01DX009 (ip), vehicle: DMSO): 98 % of control
T/C (dose: 50.0 mg/kg/injection, schedule: Q01DX009 (ip), vehicle: DMSO): 93 % of control

Cc1cc(NC(=O)c2ccc(N=Nc3cc(S(=O)(=O)O)c4ccccc4c3O)cc2)ccc1N=Nc1ccc2cc(S(=O)(=O)O)cc(S(=O)(=O)O)c2c1
T/C (dose: 12.5 mg/kg/injection, schedule: Q01DX005 (ip), vehicle: saline with Tween-80): 102 % of control and 97 % of control
T/C (dose: 25.0 mg/kg/injection, schedule: Q01DX005 (ip), vehicle: saline with Tween-80): 99 % of control and 97 % of control
T/C [8]: 101 % of control and 111 % of control
T/C [9]: 102 % of control and 109 % of control and 117 % of control
T/C [10]: 101 % of control

Clc1ccc(/C=C/c2ccccn2)cc1
T/C [8]: 91 % of control
T/C [9]: 90 % of control
T/C [10]: 91 % of control

O=C1NC(O)c2cccc(F)c2O1 (centres undefined)
T/C [8]: 100 % of control
T/C [9]: 102 % of control

CCc1ccc(C(=O)O)cc1S(=O)(=O)Cl
T/C (dose: 12.5 mg/kg/injection, schedule: Q01DX009 (ip), vehicle: saline sonified): 95 % of control
T/C [4]: 86 % of control
T/C [5]: 95 % of control

C=C(C)C(=O)Nc1ccc2nn(-c3ccccc3O)nc2c1
T/C [17]: 93 % of control
T/C [18]: 86 % of control
T/C [19]: 94 % of control

CC1(C)N=C(N)N=C(N)N1c1ccccc1
T/C (dose: 25.0 mg/kg/injection, schedule: Q04DX003 (ip), vehicle: saline): 104 % of control
T/C (dose: 50.0 mg/kg/injection, schedule: Q04DX003 (ip), vehicle: saline): 112 % of control

CCOC(=O)CNC1=NCCO1
T/C [17]: 109 % of control
T/C [18]: 107 % of control
T/C [19]: 102 % of control
T/C (dose: 400.0 mg/kg/injection, schedule: Q01DX009 (ip), vehicle: saline): 106 % of control

CCCC(NC(=O)OCc1ccccc1)C(=O)NC(C(=O)O)C(C)C (centres undefined) (Cbz-[Nva]-Val-OH; configuration not given here)
T/C [11]: 94 % of control
T/C [12]: 92 % of control
T/C [13]: 96 % of control

C=CCO[C@H]1CO[C@H]2[C@@H]1OC[C@H]2OCC=C
T/C [8]: 96 % of control
T/C [9]: 97 % of control
T/C [10]: 99 % of control
